Assay results from patent US10376520B2, “Methods for the treatment of cardiovascular disorders” (Galapagos NV, priority 2015, dated 2019).

Tested on: Subjects With Active Crohn's Disease
Assay: Total cholesterol determination, Study 5 (Crohn's disease, monotherapy of Compound 1)
Assay type: in vivo, human
Details: for [Total cholesterol] Mean CFB - 20 weeks results / [Total cholesterol] Median CFB - 20 weeks results: placebo week 0 to 10, to 100 mg q.d. week 10 to 20
Excerpt: Double-Blind, Randomized, Placebo-Controlled, Multi-Centre Study to Investigate the Efficacy and Safety of Compound 1 in Subjects With Active Crohn's Disease With Evidence of Mucosal Ulceration.
This is a double-blind, randomized, placebo-controlled, multi-centre Phase 2 study to investigate the efficacy and safety of Compound 1 administered once daily for the treatment of active CD with evidence of mucosal ulceration. The pharmacokinetics (including a PK substudy) and pharmacodynamics of Compound 1 and metabolite in CD will also be characterised.
A total of 180 eligible subjects will be randomized to receive Compound 1 or placebo in addition to their stable background treatment (eg, corticosteroids, aminosalicylates, or CD-related antibiotics). The study will consist of 2 parts, with total treatment duration of 20 weeks. Randomization in Part 1 will be stratified according the subject's previous anti-TNF exposure/response, CRP level at Screening, and oral corticosteroid use at visit Day −1.
After the first 10 weeks of treatment in Part 1, patients will be re-randomized for Part 2 as shown in the diagram below and will be stratified according to the subject's clinical response, previous anti-TNF exposure/response, and oral corticosteroid use at visit Day −1.
The following assays were conducted at Eurofins Global Central Laboratory, Bergschot 71, 4817 PA Breda, The Netherlands, and at Quest Diagnostics, Clinical Trials, Quest House, 125-135 Staines Road, Hounslow, Middlesex, TW3 3JB, United Kingdom. The assays for Study 5 were performed at BARC Europe, 3B, Industrie Park, Zwijnaarde, B-9052 Ghent, Belgium.
This method is based on the determination of Δ^4 cholestenone after enzymatic cleavage of the cholesterol ester by cholesterol esterase, conversion of cholesterol by cholesterol oxidase, and subsequent measurement by the Trinder reaction of the hydrogen peroxide formed (Allain et al., 1974).
Cholesterol esters are cleaved by the action of cholesterol esterase to yield free cholesterol and fatty acids. Cholesterol oxidase then catalyzes the oxidation of cholesterol to cholest-4-en-3-one and hydrogen peroxide. In the presence of peroxidase, the hydrogen peroxide formed effects the oxidative coupling of phenol and 4-aminophenazone to form a red quinone-imine dye. The color intensity of the dye formed is directly proportional to the cholesterol concentration. It is determined by measuring the increase in absorbance.
Human serum and plasma samples cholesterol determination was done on a Roche/Hitachi Cobas c 701/702 system which automatically calculate the analyte concentration of each sample.

[1] = Study 5 10 weeks results, 200 mg q.d., week 10
[2] = Study 5 20 weeks results, 200 mg q.d. to 100 mg q.d. at week 10, week 2
[3] = Study 5 20 weeks results, 200 mg q.d. to 100 mg q.d. at week 10, week 4
[4] = Study 5 20 weeks results, 200 mg q.d. to 100 mg q.d. at week 10, week 6
[5] = Study 5 20 weeks results, 200 mg q.d. to 100 mg q.d. at week 10, week 10
[6] = Study 5 20 weeks results, 200 mg q.d. to 100 mg q.d. at week 10, week 12
[7] = Study 5 20 weeks results, 200 mg q.d. to 100 mg q.d. at week 10, week 16
[8] = Study 5 20 weeks results, 200 mg q.d. to 100 mg q.d. at week 10, week 20
[9] = Study 5 20 weeks results, 200 mg q.d. to placebo at week 10, week 2
[10] = Study 5 20 weeks results, 200 mg q.d. to placebo at week 10, week 4
[11] = Study 5 20 weeks results, 200 mg q.d. to placebo at week 10, week 6
[12] = Study 5 20 weeks results, 200 mg q.d. to placebo at week 10, week 10
[13] = Study 5 20 weeks results, 200 mg q.d. to placebo at week 10, week 12
[14] = Study 5 20 weeks results, 200 mg q.d. to placebo at week 10, week 16
[15] = Study 5 20 weeks results, 200 mg q.d. to placebo at week 10, week 20
[16] = Study 5 20 weeks results, continued 200 mg q.d., week 2
[17] = Study 5 20 weeks results, continued 200 mg q.d., week 4
[18] = Study 5 20 weeks results, continued 200 mg q.d., week 6
[19] = Study 5 20 weeks results, continued 200 mg q.d., week 10
[20] = Study 5 20 weeks results, continued 200 mg q.d., week 12
[21] = Study 5 20 weeks results, continued 200 mg q.d., week 16
[22] = Study 5 20 weeks results, continued 200 mg q.d., week 20
[23] = Study 5 20 weeks results, placebo to 100 mg q.d. at week 10, week 12
[24] = Study 5 20 weeks results, placebo to 100 mg q.d. at week 10, week 16
[25] = Study 5 20 weeks results, placebo to 100 mg q.d. at week 10, week 20

O=C(Nc1nc2cccc(-c3ccc(CN4CCS(=O)(=O)CC4)cc3)n2n1)C1CC1 [Compound 1, cyclopropanecarboxylic acid {5-[4-(1,1-dioxo-thiomorpholin-4-ylmethyl)-phenyl]-[1,2,4]triazolo[1,5-a]pyridin-2yl}-amide]
[Total cholesterol] Median CFB [1]: 0.340 mmol/L
[total cholesterol] Mean CFB [1]: 0.401 mmol/L
[Total cholesterol] Median CFB [2]: 0.19 mmol/L
[total cholesterol] Mean CFB [2]: 0.18 mmol/L
[Total cholesterol] Median CFB [3]: 0.12 mmol/L
[total cholesterol] Mean CFB [3]: 0.27 mmol/L
[Total cholesterol] Median CFB [4]: 0.28 mmol/L
[total cholesterol] Mean CFB [4]: 0.26 mmol/L
[Total cholesterol] Median CFB [5]: 0.38 mmol/L
[total cholesterol] Mean CFB [5]: 0.44 mmol/L
[Total cholesterol] Median CFB [6]: 0.33 mmol/L
[total cholesterol] Mean CFB [6]: 0.23 mmol/L
[Total cholesterol] Median CFB [7]: 0.13 mmol/L
[total cholesterol] Mean CFB [7]: 0.09 mmol/L
[Total cholesterol] Median CFB [8]: 0.10 mmol/L
[total cholesterol] Mean CFB [8]: 0.14 mmol/L
[Total cholesterol] Median CFB [9]: 0.24 mmol/L
[total cholesterol] Mean CFB [9]: 0.16 mmol/L
[Total cholesterol] Median CFB [10]: 0.34 mmol/L
[total cholesterol] Mean CFB [10]: 0.27 mmol/L
[Total cholesterol] Median CFB [11]: 0.29 mmol/L
[total cholesterol] Mean CFB [11]: 0.22 mmol/L
[Total cholesterol] Median CFB [12]: 0.23 mmol/L
[total cholesterol] Mean CFB [12]: 0.22 mmol/L
[Total cholesterol] Median CFB [13]: 0.18 mmol/L
[total cholesterol] Mean CFB [13]: 0.04 mmol/L
[Total cholesterol] Median CFB [14]: 0.05 mmol/L
[total cholesterol] Mean CFB [14]: 0.19 mmol/L
[Total cholesterol] Median CFB [15]: 0.07 mmol/L
[total cholesterol] Mean CFB [15]: 0.18 mmol/L
[Total cholesterol] Median CFB [16]: 0.21 mmol/L
[total cholesterol] Mean CFB [16]: 0.27 mmol/L
[Total cholesterol] Median CFB [17]: 0.16 mmol/L
[total cholesterol] Mean CFB [17]: 0.14 mmol/L
[Total cholesterol] Median CFB [18]: 0.33 mmol/L
[total cholesterol] Mean CFB [18]: 0.19 mmol/L
[Total cholesterol] Median CFB [19]: 0.47 mmol/L
[total cholesterol] Mean CFB [19]: 0.43 mmol/L
[Total cholesterol] Median CFB [20]: 0.29 mmol/L
[total cholesterol] Mean CFB [20]: 0.42 mmol/L
[Total cholesterol] Median CFB [21]: 0.31 mmol/L
[total cholesterol] Mean CFB [21]: 0.43 mmol/L
[Total cholesterol] Median CFB [22]: 0.26 mmol/L
[total cholesterol] Mean CFB [22]: 0.40 mmol/L
[Total cholesterol] Median CFB [23]: 0.02 mmol/L
[total cholesterol] Mean CFB [23]: 0.11 mmol/L
[Total cholesterol] Median CFB [24]: 0.01 mmol/L
[total cholesterol] Mean CFB [24]: 0.08 mmol/L
[Total cholesterol] Median CFB [25]: 0.10 mmol/L
[total cholesterol] Mean CFB [25]: 0.03 mmol/L
[Total cholesterol] Mean CFB - 20 weeks results (week 12): 2.49%
[Total cholesterol] Median CFB - 20 weeks results (week 12): 0.41%
[Total cholesterol] Mean CFB - 20 weeks results (week 16): 2.84%
[Total cholesterol] Median CFB - 20 weeks results (week 16): 0.19%
[Total cholesterol] Mean CFB - 20 weeks results (week 20): 1.90%
[Total cholesterol] Median CFB - 20 weeks results (week 20): 2.81%
